Assay results published in patent US20190216751A1, “Compositions and Methods for the Treatment and Prevention of Cancer” (California State University Northridge, priority 2017, published 2019).

Tests used:
PEAK1 protein = test: Western blot PEAK1; format: cell-based, mouse, human; conditions: GC7 0.1 μM to 100 μM, 48 hours; 4T1, 67NR and MCF10CA1a cells
Protocol: (§1) The inventors sought to determine if the decrease in cell viability is due to the inhibition of post translational modification of eIF5A. To test this, all cell lines were treated with GC7 at 100 μM for 48 hours—which were the time point and concentration at which a decrease in cell viability was seen (FIG. 2B). The inventors then collected, performed a western blot and immunoblotted for hypusine, total eIF5A and β-actin as a loading control (FIG. 3A). […] To test if this effect is dose-dependent, 4T1, 67NR and MCF10CA1a cells were treated with various concentrations of GC7 ranging from 0.1 μM to 100 μM. Protein lysates were then collected after 48 hours of treatment and performed a western blot. […] To validate this in breast cancer cells, the inventors immunoblotted for PEAK1 as well as E-cadherin, hypusine, total eIF5A and β-actin as a loading control (FIG. 3B). […] The inventors next looked at cell viability at lower concentrations of GC7, such as 1 μM and 10 μM, where a decrease in hypusinated eIF5A is still achieved but the decrease in cell viability is not as great in lower concentrations that do still target hypusinated eIF5A (FIG. 3C).
(§2) Cell lines were plated in a 6 well plate at 1e5 cells/mL and left to attach overnight. […] Protein concentrations were determined using Bradford Assay. […] Band intensity graphs were quantified using Fiji software after image thresholding.

MCF10CA1h cells = test: Chicken CAM xenograft, tumor weight and metastasis (human Alu qPCR); format: in vivo
Protocol: FIGS. 11A and 11B. […] Human triple negative MCF10CA1h breast cancer cells were pre-treated with TGFβ and fibronectin for 7 days to induce PEAK1-dependent epithelial-mesenchymal transition and tumorigenic potential. 1e6 cells were xenografted onto the chorioallantoic membrane of 10 day old chicken embryos in 20 uL of growth factor reduced Matrigel, and subsequently treated with a vehicle control, GC7, TubastatinA (TubA) or both GC7/TubA at either 1 uM (panel A) or 10 uM (panel B). Tumors were allowed to develop over the following 7 days and then harvested and weighed along with the indicated liver, lung and brain tissues. gDNA was isolated from these additional tissues to quantify human Alu repeat sequence composition normalized to host chicken GAPDH as a measure of relative cell metastasis to the indicated tissues.
Based on the partially impaired expression of Zeb1 in vitro, we wanted to assess whether this effect would result in altered metastatic dissemination using the in vivo chicken CAM system.

breast cancer cells = test: GC7 potency after induction of EMT by TGFβ; format: cell-based; conditions: induction of EMT by TGFβ treatment
[1] = test system: E-cadherin in 67NR cell line; test: Western blot E-cadherin after GC7; format: cell-based, mouse; conditions: increased GC7 concentration, 48 hours; only in 67NR
Protocol: as §1, §2

[2] = test system: eIF5A localization in MCF10CA1h cells; test: Immunofluorescence, subcellular localization of total eIF5A; format: cell-based, human; conditions: 1 and 10 μM GC7, 48 hours
Protocol: (§3) Thus, we interrogated the subcellular localization of eIF5A protein using immunofluorescent staining under control as well as 1 and 10 μM GC7 treatment conditions in triple negative breast cancer lines (FIGS. 12A and 12B).
(§4) Cells were plated at 1e4 cells/mL at 4 mL in a 6-well plate containing a sterile glass coverslip and allowed to attach overnight. Cells were then treated with appropriate inhibitors at indicated concentrations and time-points. Cells were first fixed using 4% paraformaldehyde for 20 minutes. Cells were then subjected to Triton-X to permeabilize the cells before treatment with specific antibodies in 2% BSA in PBS. After primary antibody incubation for 90 minutes, cells were washed with PBS three times before incubating with secondary antibodies in 2% BSA in PBS for 1 hour. Cells were again washed with PBS three times before set overnight staining with DAPI. Cells were then imaged using a Leica DMI6000 inverted microscope at 100× magnification.

[3] = test system: eIF5A localization in MDA-MB-468 cells; test: as above; format: cell-based, human; conditions: 1 and 10 μM GC7, 48 hours
Protocol: as §3, §4

[4] = 1 μM GC7, fibronectin and TGFβ pre-treated cells, 7 days

Question: How did the PEAK1 protein expression (PEAK1 protein) turn out when `N=C(N)NCCCCCCCN.O=S(=O)(O)O` [GC7, N1-Guanyl-1,7-diaminoheptane] was run?
Answer: Its PEAK1 protein expression is “striking down regulation of PEAK1 protein in a dose-dependent manner”.

Question: What about the “metastatic dissemination to lung” value (MCF10CA1h cells; [4]) of the same compound?
Answer: The value was “significantly reduced”.

Question: What about the primary tumor mass (MCF10CA1h cells; [4]) of the same compound?
Answer: Its primary tumor mass is “unaffected”.

Question: What about the metastasis (MCF10CA1h cells; low doses of GC7 (1 uM, panel A)) of the same compound?
Answer: Its metastasis is “reduces metastasis”.

Question: What about the “GC7 potency after TGFβ-induced EMT” value (breast cancer cells) of the same compound?
Answer: Its value is “increases GC7 potency”.

Question: What about the E-cadherin protein expression [1] of the same compound?
Answer: Its E-cadherin protein expression is “decrease in E-cadherin”.

Question: What about the “nuclear depletion of eIF5A” value [2] of the same compound?
Answer: The value was “Nuclear depletion of eIF5A was observed”.

Question: And the “nuclear depletion of eIF5A” value [3]?
Answer: The value was “this change was significant only in the case of MDA-MB-468 cells”.
